Results: patent US6869783B1, “Method for producing chiral carboxylic acids from nitriles with the assistance of a nitrilase or microoganisms which contain a gene for the nitrilase” (BASF Aktiengesellschaft, priority 1998, dated 2005)

Tested on: nitrilase 1650
Assay: Conversion of various nitriles with nitrilase 1650 (NH4 ions in supernatant, microtiter plate)
Assay type: biochemical, Alcaligenes faecalis 1650
Set-up: Activity: unit not given here
Settings: pH 7.2
[1] = 10 mM substrate, 2 g/l dry biomass, 30° C, 2 hours

Row | Compound | % conversion [%] | Activity | μmol/l (amount of NH4 ions produced in the supernatant) [µmol/L] | % conversion [1] [%] | Activity [1] | μmol/l (amount of NH4 ions produced in the supernatant) (10 mM substrate, 2 g/l dry biomass, 30° C, 2 hours, average of a microtiter plate row) [µmol/L]
1 | CC(C#N)c1ccccc1 (stereo not shown) [Substrate 2, 2-phenylpropionitrile] | 70.2 | 4.1 | 1001.1 |  |  | 
2 | CCC(C#N)c1ccccc1 (stereo not shown) [Substrate 3, 2-phenylbutyronitrile] | 44.3 | 0.1 | 24.4 |  |  | 
3 | N#CCc1ccccc1 [Substrate 4, benzyl cyanide] | 100 | 9.2 | 2210.5 |  |  | 
4 | N#CCc1ccc(Cl)cc1 [Substrate 5, 4-chlorobenzyl cyanide] | 100 | 8.9 | 2136.3 |  |  | 
5 | N#CCc1ccc(Br)cc1 [Substrate 6, 4-bromobenzyl cyanide] | 100 | 6.2 | 1500.8 |  |  | 
6 | CCC#N [Substrate 7, propionitrile] |  | 0.02 | 4.9 |  |  | 
7 | CCCCC#N [Substrate 10, valeronitrile] |  | 0.47 | 113.4 |  |  | 
8 | α-(3-heptyl)-nitro-triacetonitrile [Substrate 14] |  |  |  | 44.1 | 0.35 | 84.8
